Laboratory results published in PMC10887214 (Biomedicines, 2024).
pIC50: −log10 of the molar value.

What was measured:
CB1 receptor (hCB1) = molecular target: T1, CB1 receptor (hCB1) (Homo sapiens, UniProt P21554); assay: Two-electrode voltage-clamp, CB1-GIRK1/GIRK2-RGS4 coupling system expressed in Xenopus oocytes; format: cell-based
T1 construct: expressed in transfected cells; host or cells: Xenopus laevis oocytes (cRNA injection)

non-injected oocytes = assay: Two-electrode voltage-clamp on non-injected oocytes; format: cell-based, Xenopus laevis; details: 100 μM OS, ND96
Text: Isolation of Xenopus laevis oocytes. All procedures for the use and handling of adult female Xenopus laevis frogs (CRB Xénopes, Rennes, France) were approved by the Animal Ethics Committee of the KU Leuven (Project No. P186/2019) following regulations of the European Union (EU) concerning the welfare of laboratory animals as declared in Directive 2010/63/EU. Oocytes were isolated as described previously. Stage V–VI Xenopus laevis oocytes were isolated by partial ovariectomy. The animals were anesthetized by a 15 min submersion in 0.1% tricaine methane sulfonate (Sigma-Aldrich Chemical, St. Louis, MO, USA) solution (pH 7.0). The oocytes were enzymatically defolliculated by collagenase (3 mg/mL) (Sigma-Aldrich Chemical, St. Louis, MO, USA) digestion at 16 °C on a rocker platform in a Ca^2+-free ND96 solution. Isolated stage V–VI oocytes were then maintained in ND96 solution containing Theophylline and Gentamicin at 16 °C.
(§1) Electrophysiological measurements.

CaV3.1 = CaV3.1 (Homo sapiens, UniProt O43497)
Text: as §1
(§2) (A), (B), (C), and (D) represent that
(§3) currents through the channels.
(§4) in oocytes, as described before (6-8).

KV1.5 = KV1.5 (Homo sapiens, UniProt P22460)
Text: as §1, §2, §3, §4

NaV1.5 = NaV1.5 (Homo sapiens, UniProt Q14524)
Text: as §1, §2, §3, §4

hERG = hERG (Homo sapiens, UniProt Q12809)
Text: as §1, §2, §3, §4

C57BL/6J mice [1] = assay: Home cage activity test; format: in vivo, mouse; details: i.p., OS 2 mg/kg
Procedure: (§5) Animal housing. Forty-eight Male C57BL/6J mice were purchased from Janvier Labs (Le Genest-Saint-Isle, France) and were time-specifically housed in a 12 h light-dark cycle (lights on at 7 am), with ad libitum water and food in conditioned rooms (22 °C, humidity ~60%).
(§6) Behavior assays. All mice were subjected to a behavioral test battery that consisted of several general performance tasks of locomotor activity, exploratory and anxiety-like behavior, and learning and memory. Mice were divided into four groups: Vehicle, OS (2 mg/kg), WIN55 (0.5 mg/kg), or OS + WIN. Each group consisted of 7–14 mice that received two i.p injections before each test, with a 10 min interval between each injection. Veh + Veh were injected with PBS. Veh + WIN were injected with PBS and WIN55. Veh + OS were injected with PBS and OS. OS + WIN were injected with OS and WIN55. PBS was used as vehicle as it was used for dilution of drugs. Tests were performed in the order described below after 10 min of the last injection, with a 24 h interval between each test.
Cage activity assessment: At P60, animals were moved to the cage activity room for one hour before injections for habituation.. The cage activity assessment consists of placing the mice in a transparent box which is placed between three infrared sensors (two on the cage’s side and one in its front) that count how many times the mice cross the infrared beams. The times of beams crossed in each 30 min were counted over a period of 24 h and used as a locomotor activity measurement. In addition, we also compared the total number of beams crossed during the day and night period. For this test, we used Veh (n = 10), OS (n = 9), WIN (n = 11), OS + WIN (n = 8).

C57BL/6J mice [2] = assay: Elevated Plus Maze (EPM); format: in vivo, mouse; details: i.p., OS 2 mg/kg, WIN 0.5 mg/kg
Procedure: as §5
as §6, with “Tests were performed in the order described below after 10 min of the last injection, with a 24 h interval between each test.” left out
Elevated Plus Maze (EPM): EPM was used to assess the effects of OS, WIN, and OS + WIN on anxiety-like behavior. […] Time in open and closed arms was measured over 10 min. Anxiety index (AI) was calculated using the following equation: AI = 1 − [([time the animal remained in the open arms (seconds)/test duration] + [input frequency in the open arms/total number of entries])/2]. […]

5-HT4aR = 5-HT4aR (Mus musculus, UniProt P97288)
MOR = MOR (Homo sapiens, UniProt P35372)
MOR, sequence (P35372 whole entry): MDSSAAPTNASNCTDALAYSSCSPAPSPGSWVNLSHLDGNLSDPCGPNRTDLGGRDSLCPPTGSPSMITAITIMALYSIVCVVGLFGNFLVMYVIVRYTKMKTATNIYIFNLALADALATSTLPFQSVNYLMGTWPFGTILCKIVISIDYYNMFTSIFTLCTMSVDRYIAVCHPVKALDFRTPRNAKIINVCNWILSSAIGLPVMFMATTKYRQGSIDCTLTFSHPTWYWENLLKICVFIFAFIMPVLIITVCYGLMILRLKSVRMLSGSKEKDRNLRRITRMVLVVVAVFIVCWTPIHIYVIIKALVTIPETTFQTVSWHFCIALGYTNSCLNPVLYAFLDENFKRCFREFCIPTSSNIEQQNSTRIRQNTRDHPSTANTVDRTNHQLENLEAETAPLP

T1 sequence (P21554 whole entry): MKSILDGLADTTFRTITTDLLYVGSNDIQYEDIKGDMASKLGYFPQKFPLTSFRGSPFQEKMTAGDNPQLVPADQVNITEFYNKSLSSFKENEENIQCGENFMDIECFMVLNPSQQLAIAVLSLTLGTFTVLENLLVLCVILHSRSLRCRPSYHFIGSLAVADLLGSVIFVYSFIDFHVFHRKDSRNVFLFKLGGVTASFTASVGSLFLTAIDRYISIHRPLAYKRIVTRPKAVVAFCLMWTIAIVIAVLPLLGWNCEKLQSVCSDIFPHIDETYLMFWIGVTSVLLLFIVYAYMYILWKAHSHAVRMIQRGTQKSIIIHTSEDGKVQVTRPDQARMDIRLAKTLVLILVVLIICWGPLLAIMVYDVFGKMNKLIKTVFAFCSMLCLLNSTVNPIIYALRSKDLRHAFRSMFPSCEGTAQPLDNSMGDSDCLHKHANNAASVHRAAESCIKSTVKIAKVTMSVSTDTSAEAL
5-HT4aR, sequence (P97288 1-387 isoform P97288-2): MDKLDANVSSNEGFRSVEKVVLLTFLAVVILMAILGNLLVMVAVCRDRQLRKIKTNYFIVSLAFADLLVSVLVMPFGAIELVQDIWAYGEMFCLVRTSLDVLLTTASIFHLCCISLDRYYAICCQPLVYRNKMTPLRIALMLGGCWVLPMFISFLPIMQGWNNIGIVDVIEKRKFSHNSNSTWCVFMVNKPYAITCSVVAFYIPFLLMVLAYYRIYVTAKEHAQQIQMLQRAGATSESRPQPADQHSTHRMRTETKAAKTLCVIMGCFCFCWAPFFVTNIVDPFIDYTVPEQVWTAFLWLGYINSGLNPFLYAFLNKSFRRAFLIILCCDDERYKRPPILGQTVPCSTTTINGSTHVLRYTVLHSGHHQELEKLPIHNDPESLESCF
KV1.5, sequence (P22460 whole entry): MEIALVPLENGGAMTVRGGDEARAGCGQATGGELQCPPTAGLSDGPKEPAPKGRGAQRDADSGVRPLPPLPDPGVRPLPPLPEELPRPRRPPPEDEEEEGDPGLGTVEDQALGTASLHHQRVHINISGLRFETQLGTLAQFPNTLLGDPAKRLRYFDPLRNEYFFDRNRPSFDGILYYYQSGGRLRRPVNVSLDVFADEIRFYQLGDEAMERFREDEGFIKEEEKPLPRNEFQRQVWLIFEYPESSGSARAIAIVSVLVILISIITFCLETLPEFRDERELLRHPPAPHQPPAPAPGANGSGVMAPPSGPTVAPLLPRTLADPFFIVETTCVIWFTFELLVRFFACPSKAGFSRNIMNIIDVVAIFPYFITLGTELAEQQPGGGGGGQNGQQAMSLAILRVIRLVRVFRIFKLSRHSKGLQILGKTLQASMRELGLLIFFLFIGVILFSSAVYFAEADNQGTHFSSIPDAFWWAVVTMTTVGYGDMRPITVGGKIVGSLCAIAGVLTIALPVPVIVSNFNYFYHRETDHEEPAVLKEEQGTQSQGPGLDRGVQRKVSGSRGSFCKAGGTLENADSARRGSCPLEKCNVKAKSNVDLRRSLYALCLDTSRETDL
CaV3.1, sequence (O43497 whole entry): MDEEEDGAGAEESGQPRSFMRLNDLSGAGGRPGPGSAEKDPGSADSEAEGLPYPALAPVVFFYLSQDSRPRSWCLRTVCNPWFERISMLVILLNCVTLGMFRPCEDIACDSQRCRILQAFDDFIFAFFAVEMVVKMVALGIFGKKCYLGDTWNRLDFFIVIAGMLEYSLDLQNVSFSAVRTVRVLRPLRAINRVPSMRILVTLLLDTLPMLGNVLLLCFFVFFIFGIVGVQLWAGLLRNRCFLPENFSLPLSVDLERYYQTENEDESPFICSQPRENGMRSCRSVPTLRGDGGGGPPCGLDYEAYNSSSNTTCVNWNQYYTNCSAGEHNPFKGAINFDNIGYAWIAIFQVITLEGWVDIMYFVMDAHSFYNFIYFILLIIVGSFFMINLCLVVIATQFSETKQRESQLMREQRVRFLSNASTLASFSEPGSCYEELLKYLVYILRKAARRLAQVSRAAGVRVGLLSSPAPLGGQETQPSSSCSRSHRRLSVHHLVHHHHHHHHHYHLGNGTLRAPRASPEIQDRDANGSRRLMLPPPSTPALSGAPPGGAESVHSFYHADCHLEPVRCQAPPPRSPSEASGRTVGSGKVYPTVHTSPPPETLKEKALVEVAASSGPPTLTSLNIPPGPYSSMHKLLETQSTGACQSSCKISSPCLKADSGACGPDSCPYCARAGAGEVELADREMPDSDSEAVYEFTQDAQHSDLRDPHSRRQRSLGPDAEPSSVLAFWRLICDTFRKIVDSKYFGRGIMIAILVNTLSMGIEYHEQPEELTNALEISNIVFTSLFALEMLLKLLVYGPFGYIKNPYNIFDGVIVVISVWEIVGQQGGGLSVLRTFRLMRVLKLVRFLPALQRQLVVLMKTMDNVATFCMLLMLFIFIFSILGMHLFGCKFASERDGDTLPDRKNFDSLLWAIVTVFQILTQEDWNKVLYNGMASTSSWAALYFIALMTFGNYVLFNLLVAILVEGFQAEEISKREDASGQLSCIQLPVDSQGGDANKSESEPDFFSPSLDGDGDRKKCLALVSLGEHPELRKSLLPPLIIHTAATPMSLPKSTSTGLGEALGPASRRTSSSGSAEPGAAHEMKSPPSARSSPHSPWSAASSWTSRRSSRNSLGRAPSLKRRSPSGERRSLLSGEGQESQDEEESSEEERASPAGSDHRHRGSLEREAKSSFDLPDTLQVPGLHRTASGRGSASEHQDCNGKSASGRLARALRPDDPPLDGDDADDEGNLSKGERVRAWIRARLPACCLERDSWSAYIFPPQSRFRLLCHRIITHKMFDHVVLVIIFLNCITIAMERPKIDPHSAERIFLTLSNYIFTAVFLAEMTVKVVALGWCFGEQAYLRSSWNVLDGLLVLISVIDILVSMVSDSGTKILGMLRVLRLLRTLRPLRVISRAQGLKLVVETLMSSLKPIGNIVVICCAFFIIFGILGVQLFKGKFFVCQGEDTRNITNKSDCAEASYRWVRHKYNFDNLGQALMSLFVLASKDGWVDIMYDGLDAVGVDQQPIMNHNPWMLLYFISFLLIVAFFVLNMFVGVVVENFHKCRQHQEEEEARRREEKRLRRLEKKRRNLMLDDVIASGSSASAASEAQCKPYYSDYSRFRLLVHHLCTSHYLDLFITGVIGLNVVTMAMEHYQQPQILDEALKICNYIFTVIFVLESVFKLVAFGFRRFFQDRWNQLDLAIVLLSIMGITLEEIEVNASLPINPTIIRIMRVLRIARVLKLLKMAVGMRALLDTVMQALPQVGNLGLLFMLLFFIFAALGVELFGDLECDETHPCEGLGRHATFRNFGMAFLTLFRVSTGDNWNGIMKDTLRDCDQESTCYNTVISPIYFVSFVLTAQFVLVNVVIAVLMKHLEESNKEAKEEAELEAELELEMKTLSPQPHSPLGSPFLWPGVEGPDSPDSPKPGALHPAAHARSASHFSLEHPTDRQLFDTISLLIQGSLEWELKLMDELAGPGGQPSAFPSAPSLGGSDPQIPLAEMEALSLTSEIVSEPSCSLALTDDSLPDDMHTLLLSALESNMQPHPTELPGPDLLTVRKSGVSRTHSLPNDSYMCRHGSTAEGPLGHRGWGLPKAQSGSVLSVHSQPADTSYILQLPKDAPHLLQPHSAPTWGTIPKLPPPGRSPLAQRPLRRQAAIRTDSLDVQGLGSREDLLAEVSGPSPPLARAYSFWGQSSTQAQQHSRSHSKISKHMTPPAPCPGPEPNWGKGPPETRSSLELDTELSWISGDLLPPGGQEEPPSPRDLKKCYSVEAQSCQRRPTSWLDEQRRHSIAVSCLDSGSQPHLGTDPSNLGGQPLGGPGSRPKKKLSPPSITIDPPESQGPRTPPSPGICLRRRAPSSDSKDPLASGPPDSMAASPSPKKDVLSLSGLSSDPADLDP

**Q.** With CCCCCCCC/C=C\CCCCCCCC(=O)NCCc1c[nH]c2ccc(O)cc12 [OS, oleoyl serotonin] as the compound, how does the “Effect on WIN55,212-2-induced inward K+ currents (IK,WIN+OS)” value (CB1 receptor (hCB1); 100 μM OS co-applied with 0.3 μM WIN55,212-2) read?
**A.** inhibited

**Q.** And the “Effect of OS alone on IK,basal” value (CB1 receptor (hCB1); 100 μM OS, 20–30 s, in HK)?
**A.** did not change the response of IK,basal

**Q.** What about the pIC50 (CB1 receptor (hCB1); IC50 of blocking CB1 receptor activated by WIN55,212-2, 0.03 μM WIN + OS) of the same compound?
**A.** 5.62

**Q.** And the pIC50 (CB1 receptor (hCB1); IC50 of blocking CB1 receptor activated by WIN55,212-2, 0.1 μM WIN + OS)?
**A.** 5.19

**Q.** And the pIC50 (CB1 receptor (hCB1); IC50 of blocking CB1 receptor activated by WIN55,212-2, 0.3 μM WIN + OS)?
**A.** 4.79

**Q.** What about the pIC50 (CB1 receptor (hCB1); IC50 of blocking CB1 receptor activated by WIN55,212-2, 1 μM WIN + OS) of the same compound?
**A.** 4.47

**Q.** What about the Mode of antagonism (CB1 receptor (hCB1); against WIN55,212-2) of the same compound?
**A.** competitively blocked

**Q.** And the “Activity on non-injected oocytes” value (non-injected oocytes)?
**A.** did not show activity

**Q.** What about the “Activity in selectivity screening” value (CaV3.1) of the same compound?
**A.** did not show significant activity

**Q.** And the “Activity in selectivity screening” value (KV1.5)?
**A.** did not show significant activity

**Q.** And the “Activity in selectivity screening” value (NaV1.5)?
**A.** did not show significant activity

**Q.** And the “Activity in selectivity screening” value (hERG)?
**A.** did not show significant activity

**Q.** And the “Overall locomotion during the night in home cage vs control” value (C57BL/6J mice [1])?
**A.** moved more in the cage compared to the control group

**Q.** What about the “Cage activity (beam crossings) 2 h after the beginning of night phase” value (C57BL/6J mice [1]; WIN 0.5 mg/kg, 21 h) of the same compound?
**A.** notably increased cage activity

**Q.** And the “Anxiety-like behavior (time in open and closed arms, anxiety index)” value (C57BL/6J mice [2])?
**A.** did not exhibit significant effects

**Q.** What about the “Activity in selectivity screening” value (5-HT4aR) of the same compound?
**A.** did not show significant activity

**Q.** And the “Activity in selectivity screening” value (MOR)?
**A.** did not show significant activity
